In publication PMC11945486, “TAS1R2/TAS1R3 Single-Nucleotide Polymorphisms Affect Sweet Taste Receptor Activation by Sweeteners: The SWEET Project” (Nutrients, 2025):

Molecular target: T1, human TAS1R2-R317G (subunit alone) (Homo sapiens, UniProt Q8TE23, R317G)
T1 construct: expressed in transfected cells; host or cells: HEK293T-Gα16gust44
T1 sequence (Q8TE23 20-839 R317G): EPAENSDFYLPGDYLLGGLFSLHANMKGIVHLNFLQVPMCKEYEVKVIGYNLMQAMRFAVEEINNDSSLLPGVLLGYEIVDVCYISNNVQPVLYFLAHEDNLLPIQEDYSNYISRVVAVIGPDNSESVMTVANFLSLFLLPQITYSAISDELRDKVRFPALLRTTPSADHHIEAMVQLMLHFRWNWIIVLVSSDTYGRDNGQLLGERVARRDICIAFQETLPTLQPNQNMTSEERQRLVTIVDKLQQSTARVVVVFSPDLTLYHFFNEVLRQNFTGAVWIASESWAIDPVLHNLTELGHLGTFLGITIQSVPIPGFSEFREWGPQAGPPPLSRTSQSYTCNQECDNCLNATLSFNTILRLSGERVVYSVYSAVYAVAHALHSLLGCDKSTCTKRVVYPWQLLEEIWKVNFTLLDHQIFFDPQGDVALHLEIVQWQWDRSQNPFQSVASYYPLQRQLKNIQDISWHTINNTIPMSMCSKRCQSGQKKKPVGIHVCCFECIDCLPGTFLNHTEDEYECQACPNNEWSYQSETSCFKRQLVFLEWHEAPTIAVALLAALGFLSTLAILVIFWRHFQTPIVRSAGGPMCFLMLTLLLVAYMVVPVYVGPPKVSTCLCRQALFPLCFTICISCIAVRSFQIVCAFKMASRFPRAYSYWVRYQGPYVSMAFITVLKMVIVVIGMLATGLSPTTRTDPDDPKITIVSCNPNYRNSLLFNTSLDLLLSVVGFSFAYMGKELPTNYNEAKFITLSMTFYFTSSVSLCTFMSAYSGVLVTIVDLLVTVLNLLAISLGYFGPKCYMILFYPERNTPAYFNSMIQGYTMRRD
Assay: Calcium mobilisation assay, TAS1R2-R317G subunit alone
Assay type: cell-based
Source text: The coding sequences for TAS1R2 and TAS1R3 were commercially synthesised, and the human codon was optimised for expression in human cells. The coding sequences of human TAS1R2 and TAS1R3 were subcloned and inserted into the mammalian expression vectors pcDNA6/myc-HisA and pcDNA4/myc-HisA (Invitrogen; Thermo Fisher Scientific; Illkirch, France) between the EcoRI and NotI restriction sites, generating the plasmids pcDNA6-TAS1R2 and pcDNA4-TAS1R3, respectively. To increase protein expression in mammalian cells, an upstream start codon was used, which was a sequence called MAX, corresponding to the QBI SP163 element also described in pcDNA4-HisMax (Invitrogen; Thermo Fisher Scientific; Illkirch, France). To measure the expression level of the receptor by immunohistochemistry, we used the FLAG sequence ([…]) in the C-terminal position, which encodes the FLAG tag epitope. […]
The HEK293T cells were kindly provided by Jay P. Slack (Givaudan Flavors Corporation; Cincinnati, OH, USA). […] The fluorescence intensity was measured for 90 s (excitation 488 nm, emission 510 nm) in an automated fluorometric FlexStation®3 Multi-Mode microplate reader (Molecular Devices; San Jose, CA, USA). […] The Ca^2+ changes were expressed as fractional changes in fluorescent light intensity: ΔF/F = (F − F0)/F0, where F was the fluorescent light intensity at each point, and F0 was the value of emitted fluorescent light prior to stimulus application. To calculate dose–response relationships, the changes in fluorescence upon stimulus application were averaged, mock-subtracted and baseline-corrected. […] The half-maximal effective concentrations (EC50 values) and maximal signal amplitudes were calculated using SigmaPlot software (version 15.0) (Systat Software; San Jose, CA, USA).
For in vitro calcium mobilisation assay performed on hTAS1R2-SNPs, hTAS1R3-SNPs and mTAS1R3-I60T, 6 to 7 concentrations were tested for each sweet compound, plus buffer alone. All concentration–receptor combinations were measured in duplicate, and each experiment was repeated at least 4 times (8 wells/concentration). […]

EC50: 225 ± 31.9 µM
R1 = Variant EC50/WT EC50: 2.5
Max ΔF/F0 (maximal signal amplitude): 0.17 ± 0.01
Structure (SMILES): C=C(C)[C@@H]1CC=C(/C=N/O)CC1 [Perillartine, perillartine]
